Assay results: US20090221642A1, “MUSCARINIC RECEPTOR AGONISTS, COMPOSITIONS, METHODS OF TREATMENT THEREOF, AND PROCESSES FOR PREPARATION THEREOF-176” (AstraZeneca AB, priority 2008, published 2009)
Read-outs that look alike come from different tables or passages of the source.

Assays:
[1] = biological target: T1, hM1 (human Muscarinic receptor subtype 1) (Homo sapiens, UniProt P11229); test: Human M1 calcium mobilization FLIPR assay; type: cell-based; settings: hM1 expressed in CHO cells, intracellular Ca2+ release
T1 construct: expressed in transfected cells; host or cells: CHO cells (Chinese hamster ovary cells, ATCC)
T1 sequence (P11229 1-460): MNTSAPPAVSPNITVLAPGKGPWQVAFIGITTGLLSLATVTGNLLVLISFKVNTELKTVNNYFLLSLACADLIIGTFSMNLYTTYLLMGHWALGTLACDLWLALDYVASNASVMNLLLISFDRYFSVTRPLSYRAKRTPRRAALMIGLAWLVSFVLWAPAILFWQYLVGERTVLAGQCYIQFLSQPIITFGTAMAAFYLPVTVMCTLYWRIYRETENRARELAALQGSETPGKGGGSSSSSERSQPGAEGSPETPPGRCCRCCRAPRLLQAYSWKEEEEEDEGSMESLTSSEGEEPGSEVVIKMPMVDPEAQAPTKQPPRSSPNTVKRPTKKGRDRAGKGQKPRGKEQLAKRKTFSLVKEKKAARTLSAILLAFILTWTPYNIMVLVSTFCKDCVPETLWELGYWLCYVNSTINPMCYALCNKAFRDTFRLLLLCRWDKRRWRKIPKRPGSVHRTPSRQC
In short: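 CHO cells expressing the receptor, dye-loaded at 37°C for 60 min, read on FLIPR at 510-570 nm. Agonism taken from compound-induced Ca2+ rise (max RFU for M1); M3/M5 inhibition measured against 2 nM acetylcholine using max minus min RFU. 10-point threefold dilutions, sigmoidal fits.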

[2] = biological target: T2, cloned human M4 receptor (human Muscarinic receptor subtype 4) (Homo sapiens, UniProt P08173); test: hM4 receptor GTPγS binding; type: biochemical; settings: CHO cell membranes expressing hM4, [35S]GTPγS binding
T2 construct: purchased Perkin-Elmer RBHM4M; host or cells: Chinese hamster ovary cells (CHO) membranes
T2 sequence (P08173 1-479): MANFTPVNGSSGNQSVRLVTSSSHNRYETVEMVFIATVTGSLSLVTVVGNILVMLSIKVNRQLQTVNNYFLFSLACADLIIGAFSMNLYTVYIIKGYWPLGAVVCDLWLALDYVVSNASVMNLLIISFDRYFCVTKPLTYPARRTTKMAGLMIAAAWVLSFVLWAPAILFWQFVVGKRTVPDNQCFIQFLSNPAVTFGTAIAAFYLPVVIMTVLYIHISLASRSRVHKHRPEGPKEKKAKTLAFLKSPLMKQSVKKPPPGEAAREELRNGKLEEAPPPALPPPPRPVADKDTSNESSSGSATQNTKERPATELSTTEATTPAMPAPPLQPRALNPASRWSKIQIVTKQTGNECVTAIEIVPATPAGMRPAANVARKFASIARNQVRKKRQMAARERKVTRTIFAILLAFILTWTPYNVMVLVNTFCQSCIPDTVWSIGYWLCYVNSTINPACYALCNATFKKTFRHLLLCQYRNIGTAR
In short: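 Membranes from CHO cells expressing cloned human M4, with SPA beads, 20 µM GDP and 0.4 nM [35S]GTPγS in HEPES buffer pH 7.4, incubated 60 min at room temperature. Antagonism measured as reversal of 10 µM acetylcholine stimulation; 10-point, threefold dilution curves fitted sigmoidally to give EC50, IC50 and Emax.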

| Structure (SMILES) | EC50 ([1]; read-out: hM1 EC50) | EC50 ([2]; read-out: hM4 EC50) | EC50 ([1]; hM1 EC50 (nM)) | EC50 ([2]; hM4 EC50 (nM)) |
| --- | --- | --- | --- | --- |
| CCOC(=O)N1CCC(C)(N2CCC(N3C(=O)Cc4ccccc43)CC2)C1 (single isomer, unassigned) [Example 73, ethyl 3-methyl-3-(4-(2-oxoindolin-1-yl)piperidin-1-yl)pyrrolidine-1-carboxylate] | 31 nM | > 90000 nM | – | – |
| CCOC(=O)N1CCC(C)(N2CCC(N3C(=O)Cc4ccc(F)cc43)CC2)C1 (single isomer, unassigned) [Example 74, ethyl 3-(4-(6-fluoro-2-oxoindolin-1-yl)piperidin-1-yl)-3-methylpyrrolidine-1-carboxylate] | 10 nM | 3600 nM | – | – |
| CCOC(=O)N1CCC(C)(N2CCC(N3C(=O)Cc4ccc(F)cc43)CC2)C1 (single isomer, unassigned) [Example 75, ethyl 3-(4-(6-fluoro-2-oxoindolin-1-yl)piperidin-1-yl)-3-methylpyrrolidine-1-carboxylate] | 47.5 nM | > 18900 nM | – | – |
| COC(=O)N1CCC(C)(N2CCC(N3C(=O)Cc4ccc(F)cc43)CC2)C1 (single isomer, unassigned) [Example 76, methyl 3-(4-(6-fluoro-2-oxoindolin-1-yl)piperidin-1-yl)-3-methylpyrrolidine-1-carboxylate] | 40.1 nM | > 90000 nM | – | – |
| CCOC(=O)N1CCC(C)(N2CCC(N3C(=O)Cc4cc(F)ccc43)CC2)C1 (single isomer, unassigned) [Example 79, ethyl 3-(4-(5-fluoro-2-oxoindolin-1-yl)piperidin-1-yl)-3-methylpyrrolidine-1-carboxylate] | 9.2 nM | 4330 nM | – | – |
| CCOC(=O)N1CCC(C)(N2CCC(N3C(=O)Cc4cc(F)ccc43)CC2)C1 (single isomer, unassigned) [Example 80, ethyl 3-(4-(5-fluoro-2-oxoindolin-1-yl)piperidin-1-yl)-3-methylpyrrolidine-1-carboxylate] | 69.4 nM | > 21800 nM | – | – |
| CCOC(=O)N1CCC(C)(N2CCC(N3C(=O)Cc4cc(F)c(C)cc43)CC2)C1 (single isomer, unassigned) [Example 81, ethyl 3-(4-(5-fluoro-6-methyl-2-oxoindolin-1-yl)piperidin-1-yl)-3-methylpyrrolidine-1-carboxylate] | 8.7 nM | 7070 nM | – | – |
| CCOC(=O)N1CCC(C)(N2CCC(N3C(=O)Cc4cc(F)c(C)cc43)CC2)C1 (single isomer, unassigned) [Example 82, ethyl 3-(4-(5-fluoro-6-methyl-2-oxoindolin-1-yl)piperidin-1-yl)-3-methylpyrrolidine-1-carboxylate] | 8.7 nM | 937 nM | – | – |
| COC(=O)N1CCC(C)(N2CCC(N3C(=O)Cc4cc(F)c(C)cc43)CC2)C1 (single isomer, unassigned) [Example 83, methyl 3-(4-(5-fluoro-6-methyl-2-oxoindolin-1-yl)piperidin-1-yl)-3-methylpyrrolidine-1-carboxylate] | – | – | 26.1 nM | 11300 nM |
| COC(=O)N1CCC(C)(N2CCC(N3C(=O)Cc4cc(F)c(C)cc43)CC2)C1 (single isomer, unassigned) [Example 84, methyl 3-(4-(5-fluoro-6-methyl-2-oxoindolin-1-yl)piperidin-1-yl)-3-methylpyrrolidine-1-carboxylate] | – | – | 7.7 nM | 2540 nM |
| CCOC(=O)N1CCC(C)(N2CCC(n3c(=O)[nH]c4ccccc43)CC2)C1 (stereo not shown) [Example 1, ethyl 3-methyl-3-(4-(2-oxo-2,3-dihydro-1H-benzo[d]imidazol-1-yl)piperidin-1-yl)pyrrolidine-1-carboxylate] | 4.2 nM | 1700 nM | – | – |
| CCNC(=O)N1CCC(C)(N2CCC(n3c(=O)[nH]c4ccccc43)CC2)C1 (stereo not shown) [Example 5, N-ethyl-3-methyl-3-(4-(2-oxo-2,3-dihydro-1H-benzo[d]imidazol-1-yl)piperidin-1-yl)pyrrolidine-1-carboxamide] | 43.3 nM | > 16000 nM | – | – |
| COC(=O)N1CCC(C)(N2CCC(n3c(=O)[nH]c4cc(F)ccc43)CC2)C1 (stereo not shown) [Example 8, methyl 3-(4-(5-fluoro-2-oxo-2,3-dihydro-1H-benzo[d]imidazol-1-yl)piperidin-1-yl)-3-methylpyrrolidine-1-carboxylate] | 18.3 nM | 5210 nM | – | – |
| CC1(N2CCC(n3c(=O)[nH]c4cc(F)ccc43)CC2)CCN(C(=O)OCCF)C1 (stereo not shown) [Example 10, 2-fluoroethyl 3-(4-(5-fluoro-2-oxo-2,3-dihydro-1H-benzo[d]imidazol-1-yl)piperidin-1-yl)-3-methylpyrrolidine-1-carboxylate] | 26.3 nM | 5170 nM | – | – |
| C#CCOC(=O)N1CCC(C)(N2CCC(n3c(=O)[nH]c4cc(F)ccc43)CC2)C1 (stereo not shown) [Example 11, prop-2-ynyl 3-(4-(5-fluoro-2-oxo-2,3-dihydro-1H-benzo[d]imidazol-1-yl)piperidin-1-yl)-3-methylpyrrolidine-1-carboxylate] | 2 nM | 714 nM | – | – |
| CCOC(=O)N1CCC(C)(N2CCC(n3c(=O)[nH]c4ccc(C)cc43)CC2)C1 (stereo not shown) [Example 16, ethyl 3-methyl-3-(4-(6-methyl-2-oxo-2,3-dihydro-1H-benzo[d]imidazol-1-yl)piperidin-1-yl)pyrrolidine-1-carboxylate] | 8.1 nM | 1700 nM | – | – |
| COC(=O)N1CCC(C)(N2CCC(n3c(=O)[nH]c4ccc(C)cc43)CC2)C1 (stereo not shown) [Example 17, methyl 3-methyl-3-(4-(6-methyl-2-oxo-2,3-dihydro-1H-benzo[d]imidazol-1-yl)piperidin-1-yl)pyrrolidine-1-carboxylate] | 9.7 nM | 3150 nM | – | – |
